Experimental data: patent US20250281480A1, “PHARMACEUTICAL DRY POWDER INHALATION FORMULATION” (Bayer Aktiengesellschaft, priority 2021, published 2025)

Experiments:
[1] = Micronization of monohydrate II and monohydrate I (spiral jet mill): solid form after micronization; assay type: physicochemical
Description: Generally no amorphization even partial nor form conversion should happen during the necessary micronization step.
The corresponding batches (examples 8a-8d) were micronized using a 50 mm spiral jet mill and pressurized nitrogen with the following parameters (see table 16b).
The corresponding batches were micronized using a 100 mm spiral jet mill and pressurized nitrogen with the following parameters (see table 16c).

[2] = Phase I, healthy male subjects, 7 days: plasma concentrations over time; assay type: in vivo, human; details: after first inhalation, all doses
Experimental: (§1) Healthy White male subjects, aged 18 to 45 years and with a body mass index (BMI) above/equal 18.5 and below/equal 29.9 kg/m2 were treated in a clinical pharmacological phase I study on seven days with inhaled once daily doses of 480 or 1000 or 2000 μg (2 capsules of 1000 μg) (nominal dose) of dry powder formulations of example 2 or Placebo. The subjects inhaled the drug powder from capsules (see under C, e.g. tables 22 and 23) inserted into a handheld inhalation device by one deep inhalative breath. The dry powder formulation of the drug is dispersed into the airstream and fine particles are transported into the deep parts of the lung where it is intended to cause a vasodilation of the blood vessels in PH patients for a substantial reduction of increased blood pressure in the central pulmonary blood vessels in PAH patients or other subtypes of PH. This effect cannot be shown in subjects with healthy lungs. In addition inhaled drug causes a dilation of the bronchial airways and thus also improves disease states of lung diseases in PH patients with pathological bronchoconstriction. This effect was measured via bodyplethysmography as reduction of Specific Airway Resistance in healthy subjects. […]

[3] = test system: anesthetized PAH minipigs; test: PAH minipig, intratracheal application of dry powder formulations and of different hydrates (PAP, BP); assay type: in vivo, Göttingen Minipigs; details: 375 μg/kg i.t.
Experimental: Healthy Göttingen Minipigs® Ellegaard (Ellegaard, Denmark) of both sexes and having a weight of 2-6 kg were used. The animals were sedated by i.m. administration of about 25 mg/kg ketamine and about 10 mg/kg azaperone. Anaesthesia was initiated by i.v. administration of about 2 mg/kg ketamine and about 0.3 mg/kg midazolam. Maintenance of anaesthesia was by i.v. administration of about 7.5-30 mg/kg/h ketamine and about 1-4 mg/kg/h midazolam (rate of infusion 1-4 ml/kg/h) and about 150 μg/kg/h pancuronium bromide (for example Pancuronium-Actavis). After intubation, the animals were ventilated by the ventilator at a constant respiratory volume (10-12 ml/kg, 35 breaths/min; Avea®, Viasys Healthcare, USA, or Engström Carestation, GE Healthcare, Freiburg, Germany) such that an end-tidal CO2 concentration of about 5% was achieved. Ventilation was performed with room air, enriched with about 40% oxygen (normoxia). For the measurement of the haemodynamic parameters such as pulmonary arterial pressure (PAP), blood pressure (BP) and heart rate (HR), catheters were inserted into the carotid artery to measure the blood pressure, and a Swan-Ganz® catheter was introduced in a flow-directed manner via the jugular vein into the pulmonary artery. The haemodynamic signals were recorded and evaluated by means of pressure transducers (Combitransducer, B. Braun, Melsungen, Germany)/amplifiers and Ponemah® as data acquisition software.
About 0.3-0.75 μg/kg/min of 9,11-didesoxy-9α,11α-epoxymethanoprostaglandine F2α (U-44069; Sigma, cat. no. D0400, or Cayman Chemical Company, cat. no. 16440), dissolved in physiological saline, were infused to achieve an increase of the mean pulmonary arterial pressure to values of over 25 mmHg.
After characterization of the effects of comparative example 11 after nebulization of compound solutions, in a further step the effects of crystalline forms of comparative example 11, e.g. sesquihydrate, e.g. example 6e on PAP and BP after inhaled application of different dry powder lactose formulations (table 52) were studied in anesthetized PAH minipigs.
As reference pure Lactose vehicle was applied in the beginning of each experiment.

cGMP = test: Phase I, healthy male subjects, inhaled once daily for 7 days: cGMP in blood samples; assay type: in vivo, human
Experimental: Healthy White male subjects, aged 18 to 45 years and with a body mass index (BMI) above/equal 18.5 and below/equal 29.9 kg/m2 were treated in a clinical pharmacological phase I study on seven days with inhaled once daily doses of 480 or 1000 or 2000 μg (2 capsules of 1000 μg) (nominal dose) of dry powder formulations of example 2 or Placebo. The subjects inhaled the drug powder from capsules (see under C, e.g. tables 22 and 23) inserted into a handheld inhalation device by one deep inhalative breath. The dry powder formulation of the drug is dispersed into the airstream and fine particles are transported into the deep parts of the lung where it is intended to cause a vasodilation of the blood vessels in PH patients for a substantial reduction of increased blood pressure in the central pulmonary blood vessels in PAH patients or other subtypes of PH. This effect cannot be shown in subjects with healthy lungs. In addition inhaled drug causes a dilation of the bronchial airways and thus also improves disease states of lung diseases in PH patients with pathological bronchoconstriction. This effect was measured via bodyplethysmography as reduction of Specific Airway Resistance in healthy subjects. After the deep inhalative breath the subjects hold breath for 2 seconds, so that the dry powder drug condenses from the airstream onto the surface of the deeper lung areas where it is deposited close to its site of intended pharmacological action. The drug dissolutes over the day and equilibrates the lung via lining fluid.
Drug activity in healthy men was controlled in the healthy subjects by analysing blood samples for cGMP, the immediate product of sGC pharmacological activation prior after the first and after the last drug inhalation of the 7 days treatment in comparison to measurements on the pretreatment day for all doses.

[4] = Storage stability of pseudopolymorphic forms (XRPD); assay type: physicochemical
healthy male subjects = test: Phase I, healthy male subjects, 7 days: bodyplethysmography, total specific airway resistance (sRaw); assay type: in vivo, human
Experimental: as §1

[5] = XRPD
Experimental: There was no sample preparation.
3 g (5S)—{[2-(4-Carboxyphenyl)ethyl][2-(2-{[3-chloro-4′-(trifluoromethyl)biphenyl-4-yl]methoxy}-phenyl)ethyl]amino}-5,6,7,8-tetrahydroquinoline-2-carboxylic acid monohydrate I, (material prepared in analogy to example 3/4) were suspended in 20 mL of methanol. The suspension was stirred at ambient conditions for eight days. The residue was filtered and the resulting solid was dryed at ambient conditions. • water content: 4.8% water • Raman: see table 13, see FIG. 17 • IR: see table 14, see FIG. 24 • XRPD: see table 12, see FIG. 10

## O=C(O)c1ccc(CCN(CCc2ccccc2OCc2ccc(-c3ccc(C(F)(F)F)cc3)cc2Cl)[C@H]2CCCc3nc(C(=O)O)ccc32)cc1 [Example 2, (5S)—{[2-(4-Carboxyphenyl)ethyl][2-(2-{[3-chloro-4′-(trifluoromethyl)biphenyl-4-yl]methoxy}phenyl)-ethyl]amino}-5,6,7,8-tetrahydroquinoline-2-carboxylic Acid as Monohydrate II]
[1]; example 2 batch
  XRPD after micronization: monohydrate II with partial amorphization
[1]; example 8a: VA jet mill (diameter 50 mm), 25° C.
  solid form after micronization: transformation from monohydrate II to monohydrate I
[1]; example 8b, several conditions, even low stress
  solid form after micronization: partial amorphization
[2]
  measurable plasma concentration persisted for: 48 h
[3]; micronized hydrates
  efficacy with regard to PAP reduction and systemic BP reduction: comparable efficacy
[3]; time 160, per animal
  PAP(mean): 27.8 mmHg
cGMP; 480 μg inhaled once daily, 7 D 15 H 00 M
  cGMP over time (means): 8.56 ± 2.80 nmol/L
cGMP; 480 μg inhaled once daily, 8 D 00 H 00 M
  cGMP over time (means): 7.20 ± 3.23 nmol/L
cGMP; 480 μg inhaled once daily, 8 D 12 H 00 M
  cGMP over time (means): 6.20 ± 2.00 nmol/L
cGMP; 480 μg inhaled once daily, 9 D 00 H 00 M
  cGMP over time (means): 5.64 ± 2.53 nmol/L
cGMP; 480 μg inhaled once daily, −0 D 09 H 00 M
  cGMP over time (means): 5.60 ± 1.08 nmol/L
cGMP; 480 μg inhaled once daily, −1 D 02 H 00 M
  cGMP over time (means): 5.40 ± 1.41 nmol/L
cGMP; 1000 μg inhaled once daily, 5 D 00 H 00 M
  cGMP over time (means): 8.50 ± 2.13 nmol/L
cGMP; 1000 μg inhaled once daily, −0 D 20 H 00 M
  cGMP over time (means): 4.78 ± 1.37 nmol/L
cGMP; 1000 μg inhaled once daily, −0 D 22 H 00 M
  cGMP over time (means): 5.10 ± 1.46 nmol/L
cGMP; 2000 μg inhaled once daily, 2 D 00 H 00 M
  cGMP over time (means): 6.40 ± 2.09 nmol/L
cGMP; 2000 μg inhaled once daily, 3 D 00 H 00 M
  cGMP over time (means): 10.00 ± 3.51 nmol/L
cGMP; 2000 μg inhaled once daily, 8 D 00 H 00 M
  cGMP over time (means): 16.00 ± 5.77 nmol/L
cGMP; 2000 μg inhaled once daily, 9 D 12 H 00 M
  cGMP over time (means): 9.40 ± 3.10 nmol/L
cGMP; 2000 μg inhaled once daily, −0 D 18 H 00 M
  cGMP over time (means): 4.32 ± 1.33 nmol/L
[4]; example 7a: brown glass snap on closure, 25° C., 60% relative humidity
  Result (solid form after storage): monohydrate II
[4]; example 7b: polyethylene, 25° C., 60% relative humidity
  Result (solid form after storage): monohydrate I
[4]; example 7c: polyethylene, 40° C., 75% relative humidity
  Result (solid form after storage): monohydrate I
[4]; example 7d: brown glass closed with paper filter disc, 40° C., 75% relative humidity
  Result (solid form after storage): monohydrate I
Healthy male subjects; 480 μg inhaled once daily, 0 D 06 H 00 M
  total specific airway resistance (means): 0.800 ± 0.187 kPa/sec
Healthy male subjects; 2000 μg inhaled once daily, 7 D 06 H 00 M
  total specific airway resistance (means): 0.730 ± 0.151 kPa/sec

## O.O.O=C(O)c1ccc(CCN(CCc2ccccc2OCc2ccc(-c3ccc(C(F)(F)F)cc3)cc2Cl)[C@H]2CCCc3nc(C(=O)O)ccc32)cc1 [Example 6f]
[5]
  solid form after drying: went amorphous
